What was measured:
[1] = tested on: P. falciparum 3D7 trophozoites; assay: Metabolomic fingerprint profiling LC-MS; format: cell-based, Plasmodium falciparum; parameters: UDP-D-glucose / ADP-D-glucose: unit not given here; settings: for Acetyllysine / N-acetyl-L-ornithine / N-carbamoyl-L-aspartate / NADPH / dAMP / dCMP / dTDP / dTMP / dTTP / dihydroorotate / orotate / DLH / DLS/SDL/SID / PD / PEE / PVNF / 3-phosphoglycerate / ADP-D-glucose / ATP / CDP / D-sedoheptulose-1/7-phosphate / FAD / GMP / NAD+ / NADP+ / Octoluse Bisphosphate / Pyroglutamic acid / UDP-D-glucose / UDP-D-glucuronate / UDP-N-acetyl-glucosamine / UDP / UMP / UTP / a-ketoglutarate / citrate/isocitrate / cytidine / dATP / dGMP/AMP / fumarate / glucose-1/6-phosphate / glycerate / guanine / guanosine / hypoxanthine / indole / inosine / nicotinate / ornithine / phosphoenolpyruvate / pyruvate / ribose-phosphate / sarcosine/alanine / sn-glycerol-3-phosphate / succinate/methylmalonic acid / uridine / xanthosine: S2 Table Metabolomics; for Acetyllysine: metabolite Acetyllysine; for N-acetyl-L-ornithine: metabolite N-acetyl-L-ornithine; for N-carbamoyl-L-aspartate: metabolite N-carbamoyl-L-aspartate; for NADPH: metabolite NADPH; for dAMP: metabolite dAMP; for dCMP: metabolite dCMP; for dTDP: metabolite dTDP; for dTMP: metabolite dTMP; for dTTP: metabolite dTTP; for dihydroorotate: metabolite dihydroorotate; for orotate: metabolite orotate; for DLH: peptide DLH; for DLS/SDL/SID: peptide DLS/SDL/SID; for PD: peptide PD; for PEE: peptide PEE; for PVNF: peptide PVNF; for 3-phosphoglycerate: metabolite 3-phosphoglycerate; for ADP-D-glucose: metabolite ADP-D-glucose; for ATP: metabolite ATP; for CDP: metabolite CDP; for CDP / D-sedoheptulose-1/7-phosphate / GMP / Octoluse Bisphosphate / UDP / UMP / UTP / citrate/isocitrate / dGMP/AMP / fumarate / glucose-1/6-phosphate / glycerate / guanine / guanosine / inosine / pyruvate / sarcosine/alanine / succinate/methylmalonic acid / uridine / xanthosine: change in metabolite level after compound treatment; for D-sedoheptulose-1/7-phosphate: metabolite D-sedoheptulose-1/7-phosphate; for FAD: metabolite FAD; for GMP: metabolite GMP; for NAD+: metabolite NAD+; for NADP+: metabolite NADP+; for Octoluse Bisphosphate: metabolite Octoluse Bisphosphate; for Pyroglutamic acid: metabolite Pyroglutamic acid; for UDP-D-glucose: metabolite UDP-D-glucose; for UDP-D-glucuronate: metabolite UDP-D-glucuronate; for UDP-N-acetyl-glucosamine: metabolite UDP-N-acetyl-glucosamine; for UDP: metabolite UDP; for UMP: metabolite UMP; for UTP: metabolite UTP; for a-ketoglutarate: metabolite a-ketoglutarate; for citrate/isocitrate: metabolite citrate/isocitrate; for cytidine: metabolite cytidine; for dATP: metabolite dATP; for dGMP/AMP: metabolite dGMP/AMP; for fumarate: metabolite fumarate; for glucose-1/6-phosphate: metabolite glucose-1/6-phosphate; for glycerate: metabolite glycerate; for guanine: metabolite guanine; for guanosine: metabolite guanosine; for hypoxanthine: metabolite hypoxanthine; for indole: metabolite indole; for inosine: metabolite inosine; for 2_3-Diphosphoglyceric acid / 4-phosphopantothenate / 6-phospho-D-gluconate / FMN / IMP / Pyrophosphate / Sedoheptoluse bisphosphate / cyclic-AMP / glutathione disulfide / lactate / myo-inositol: metabolite level change after treatment; for nicotinate: metabolite nicotinate; for ornithine: metabolite ornithine; for phosphoenolpyruvate: metabolite phosphoenolpyruvate; for pyruvate: metabolite pyruvate; for ribose-phosphate: metabolite ribose-phosphate; for sarcosine/alanine: metabolite sarcosine/alanine; for sn-glycerol-3-phosphate: metabolite sn-glycerol-3-phosphate; for succinate/methylmalonic acid: metabolite succinate/methylmalonic acid; for uridine: metabolite uridine; for xanthosine: metabolite xanthosine
P. falciparum = assay: EC50 listed in S2 Table Metabolomics (used to set the concentration tested); format: cell-based; settings: Plasmodium falciparum; EC50 used for Factor_XEC50 in metabolomics; read-out: EC50_nM

## COc1ccc(NC(=O)C2c3ccccc3C(=O)N(CC(C)C)C2c2cccs2)cc1Cl (stereo not drawn) [MMV000642]
[1]
  Acetyllysine: -5.193
  N-acetyl-L-ornithine: -3.747
  N-carbamoyl-L-aspartate: -2.41
  NADPH: -0.3813
  dAMP: 2.141
  dCMP: 1.187
  dTDP: 1.699
  dTMP: 3.58
  dTTP: 1.5
  dihydroorotate: -2.555
  orotate: -0.348
  DLH: -5.968
  DLS/SDL/SID: -3.9977
  PD: -2.5956
  PEE: -3.5386
  PVNF: -6.505
  3-phosphoglycerate: -0.2719
  ADP-D-glucose: -0.1906
  ATP: -1.554
  CDP: -0.7723
  D-sedoheptulose-1/7-phosphate: -1.211
  FAD: -1.709
  GMP: -1.9066
  NAD+: -0.5171
  NADP+: -0.1638
  Octoluse Bisphosphate: -2.57
  Pyroglutamic acid: 0.06474
  UDP-D-glucose: -0.2074
  UDP-D-glucuronate: -0.1541
  UDP-N-acetyl-glucosamine: -0.04904
  UDP: -1.27
  UMP: -0.4497
  UTP: -1.308
  a-ketoglutarate: -0.0007361
  citrate/isocitrate: -0.3751
  cytidine: 0.1777
  dATP: 0.01445
  dGMP/AMP: -0.6011
  fumarate: -0.3143
  glucose-1/6-phosphate: -1.542
  glycerate: -0.9599
  guanine: 0.2177
  guanosine: 0.8357
  hypoxanthine: -0.2894
  indole: -0.1989
  inosine: 0.04742
  2_3-Diphosphoglyceric acid: -1.07
  4-phosphopantothenate: -0.7331
  6-phospho-D-gluconate: -0.5035
  FMN: -0.2051
  IMP: -0.1621
  Pyrophosphate: -1.141
  Sedoheptoluse bisphosphate: -1.388
  cyclic-AMP: -0.8649
  glutathione disulfide: -0.7288
  lactate: -1.097
  myo-inositol: -1.4412
  nicotinate: 0.5786
  ornithine: 0.1669
  phosphoenolpyruvate: 0.08762
  pyruvate: -0.8949
  ribose-phosphate: -0.3617
  sarcosine/alanine: -1.783
  sn-glycerol-3-phosphate: 1.156
  succinate/methylmalonic acid: 0.05807
  uridine: 1.2
  xanthosine: -1.585
P. falciparum
  EC50: 20.2 nM

## O=C(CSc1nccn2nc(-c3ccccc3)cc12)Nc1cc(C(F)(F)F)ccc1Cl [MMV396678]
[1]
  Acetyllysine: -0.4877
  N-acetyl-L-ornithine: -0.4938
  N-carbamoyl-L-aspartate: 3.602
  NADPH: -0.3509
  dAMP: -2.425
  dCMP: -0.1067
  dTDP: -0.8621
  dTMP: -0.7966
  dTTP: -1.266
  dihydroorotate: 4.597
  orotate: 0.259
  DLH: -0.3174
  DLS/SDL/SID: -0.3424
  PD: -0.07917
  PEE: -0.441
  PVNF: -2.237
  3-phosphoglycerate: -0.1451
  ADP-D-glucose: -0.07756
  ATP: 0.1007
  CDP: -0.7494
  D-sedoheptulose-1/7-phosphate: -0.4438
  FAD: -0.03171
  GMP: 0.3554
  NAD+: 0.01671
  NADP+: -0.09002
  Octoluse Bisphosphate: -0.2508
  Pyroglutamic acid: 0.3744
  UDP-D-glucose: -0.1169
  UDP-D-glucuronate: -0.3093
  UDP-N-acetyl-glucosamine: -0.3205
  UDP: -0.9356
  UMP: -0.7589
  UTP: -1.3566
  a-ketoglutarate: 0.2592
  citrate/isocitrate: 0.4562
  cytidine: 0.4629
  dATP: 0.2611
  dGMP/AMP: -0.1351
  fumarate: 0.07736
  glucose-1/6-phosphate: 0.1714
  glycerate: 0.291
  guanine: 0.4817
  guanosine: 0.7569
  hypoxanthine: 0.5204
  indole: 0.3835
  inosine: 0.4193
  2_3-Diphosphoglyceric acid: -0.1645
  4-phosphopantothenate: -0.3586
  6-phospho-D-gluconate: -0.1209
  FMN: -0.2869
  IMP: 0.1606
  Pyrophosphate: -0.1573
  Sedoheptoluse bisphosphate: -0.2556
  cyclic-AMP: -0.1203
  glutathione disulfide: -0.08653
  lactate: 0.1751
  myo-inositol: -0.2117
  nicotinate: 0.4349
  ornithine: 0.266
  phosphoenolpyruvate: 0.01446
  pyruvate: 0.3754
  ribose-phosphate: -0.04013
  sarcosine/alanine: -0.09301
  sn-glycerol-3-phosphate: -0.3771
  succinate/methylmalonic acid: 0.03069
  uridine: 0.1532
  xanthosine: 0.489

Source: paper PMC4965013, “Open Source Drug Discovery with the Malaria Box Compound Collection for Neglected Diseases and Beyond” (PLoS Pathogens, 2016)
